From patent US20100298141A1, “SUBSTITUTED PYRIDINE N-OXIDE HERBICIDES” (E. I. DU PONT DE NEMOURS AND COMPANY, priority 2007, published 2010)

Experiments:
velvetleaf [1] = assay: Test C pre-/postemergence test; type: in vivo, Abutilon theophrasti
Outline: (§1)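 Seeds were planted and treated preemergence with test chemical in a non-phytotoxic solvent mixture containing surfactant. Postemergence applications of the same formulation went onto plants 2 to 18 cm tall (1- to 4-leaf stage). A dash marks no test result.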

redroot pigweed = assay: Test A pre-/postemergence greenhouse test; type: in vivo, Amaranthus retroflexus; settings: for Plant response rating, Pigweed: 0 to 100 scale where 0 is no effect and 100 is complete control; for Pigweed plant response rating: 0 to 100 scale
Outline: (§2)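 Each test compound, dissolved in a non-phytotoxic solvent mixture with surfactant, was sprayed directly onto seeded soil (loam/sand blend) and, at the same moment, onto seedlings carrying one to two leaves. Around ten greenhouse days later, plants were rated visually for injury relative to untreated controls.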

woolly cupgrass = assay: Test C pre-/postemergence test; type: in vivo, Eriochloa villosa
Outline: as §1

yellow nutsedge = assay: Test C pre-/postemergence test; type: in vivo, Cyperus esculentus
Outline: as §1

duck salad = assay: Test C flooded paddy test; type: in vivo, Heteranthera limosa; settings: Flood
Outline: (§3)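 Under a constant 3 cm flood, test compounds went directly into the paddy water. Following 13 to 15 days of greenhouse growth, treated species and controls were compared by eye.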

velvetleaf [2] = assay: Test A pre-/postemergence greenhouse test; type: in vivo, Abutilon theophrasti; settings: for Plant response rating, Velvetleaf: 0 to 100 scale where 0 is no effect and 100 is complete control; for Velvetleaf plant response rating: 0 to 100 scale
Outline: as §2

wheat [3] = assay: Test A pre-/postemergence greenhouse test; type: in vivo, Triticum aestivum; settings: for Plant response rating, Wheat: 0 to 100 scale where 0 is no effect and 100 is complete control; for Wheat plant response rating: 0 to 100 scale
Outline: as §2

rice = assay: Test C flooded paddy test; type: in vivo, Oryza sativa; settings: Flood
Outline: as §3

wheat [4] = assay: Test C pre-/postemergence test; type: in vivo, Triticum aestivum
Outline: as §1

johnsongrass = assay: Test C pre-/postemergence test; type: in vivo, Sorghum halepense
Outline: as §1

morningglory = assay: Test C pre-/postemergence test; type: in vivo, Ipomoea coccinea
Outline: as §1

eastern black nightshade = assay: Test C pre-/postemergence test; type: in vivo, Solanum ptycanthum; settings: for Plant response rating, Nightshade: 31 g ai/ha, scale 0 to 100 (0 no effect, 100 complete control)
Outline: as §1

wild oat = assay: Test C pre-/postemergence test; type: in vivo, Avena fatua
Outline: as §1

catchweed bedstraw = assay: Test C pre-/postemergence test; type: in vivo, Galium aparine; settings: for Plant response rating, Galium: 31 g ai/ha, scale 0 to 100 (0 no effect, 100 complete control)
Outline: as §1

downy brome = assay: Test C pre-/postemergence test; type: in vivo, Bromus tectorum
Outline: as §1

corn = assay: Test C pre-/postemergence test; type: in vivo, Zea mays
Outline: as §1

giant foxtail = assay: Test C pre-/postemergence test; type: in vivo, Setaria faberii
Outline: as §1

[5] = 62 g ai/ha, Preemergence, scale 0 to 100
[6] = 125 g ai/ha, preemergence, scale 0 (no effect) to 100 (complete control)
[7] = Postemergence, 125 g ai/ha, scale 0 to 100, 0 no effect, 100 complete control
[8] = Postemergence, 250 g ai/ha, scale 0 to 100, 0 no effect, 100 complete control
[9] = Preemergence, 31 g ai/ha, scale 0 to 100 (0 no effect, 100 complete control)
[10] = preemergence, 250 g ai/ha, scale 0 (no effect) to 100 (complete control)
[11] = Postemergence, 500 g ai/ha, 0 is no effect, 100 is complete control
[12] = Preemergence, 125 g ai/ha, 0 no effect, 100 complete control
[13] = Postemergence, 62 g ai/ha, scale 0 to 100, 0 no effect, 100 complete control
[14] = 62 g ai/ha, scale 0 to 100, 0 no effect, 100 complete control, 13 to 15 days
[15] = 250 g ai/ha, scale 0 to 100, 0 no effect, 100 complete control, 13 to 15 days
[16] = Postemergence, 125 g ai/ha, 0 is no effect, 100 is complete control
[17] = 31 g ai/ha, scale 0 to 100 (0 no effect, 100 complete control)
[18] = 125 g ai/ha, scale 0 to 100, 0 no effect, 100 complete control, 13 to 15 days
[19] = 250 g ai/ha, scale 0 to 100 (0 no effect, 100 complete control)
[20] = preemergence, 125 g ai/ha, scale 0 (no effect) to 100 (complete control)

[O-][n+]1cc(Cl)ccc1[S+]([O-])Cc1c(C(F)(F)F)nn(CC(F)(F)F)c1Cl (stereo not drawn) [Compound 47]
Velvetleaf plant response rating (velvetleaf [1]; [5]): 0
Velvetleaf plant response rating (velvetleaf [1]; [6]): 70
Plant response rating (0 to 100), Velvetleaf (velvetleaf [1]; Postemergence, 31 g ai/ha): 0
Plant response rating (0 to 100), Velvetleaf (velvetleaf [1]; Postemergence, 62 g ai/ha): 0
Plant response rating, Velvetleaf (velvetleaf [1]; [7]): 0
Plant response rating, Velvetleaf (velvetleaf [1]; [8]): 20
Plant response rating, Velvetleaf (velvetleaf [1]; [9]): 0
Velvetleaf plant response rating (velvetleaf [1]; [10]): 100
Plant response rating, Pigweed (redroot pigweed; Postemergence, 125 g ai/ha): 60
Pigweed plant response rating (redroot pigweed; [11]): 80
Pigweed plant response rating (redroot pigweed; [12]): 100
Plant response rating, Pigweed (redroot pigweed; Preemergence, 500 g ai/ha): 100
Cupgrass, Woolly plant response rating (woolly cupgrass; [5]): 100
Cupgrass, Woolly plant response rating (woolly cupgrass; [6]): 100
Plant response rating (0 to 100), Cupgrass, Woolly (woolly cupgrass; Postemergence, 31 g ai/ha): 0
Plant response rating, Cupgrass, Woolly (woolly cupgrass; [13]): 0
Plant response rating, Cupgrass, Woolly (woolly cupgrass; [7]): 0
Plant response rating, Cupgrass, Woolly (woolly cupgrass; [8]): 50
Plant response rating, Cupgrass, Woolly (woolly cupgrass; [9]): 90
Cupgrass, Woolly plant response rating (woolly cupgrass; [10]): 100
Nutsedge, Yellow plant response rating (yellow nutsedge; [5]): 30
Nutsedge, Yellow plant response rating (yellow nutsedge; [6]): 40
Plant response rating (0 to 100), Nutsedge, Yellow (yellow nutsedge; Postemergence, 31 g ai/ha): 0
Plant response rating, Nutsedge, Yellow (yellow nutsedge; [13]): 0
Plant response rating, Nutsedge, Yellow (yellow nutsedge; [7]): 0
Plant response rating, Nutsedge, Yellow (yellow nutsedge; [8]): 60
Plant response rating, Nutsedge, Yellow (yellow nutsedge; [9]): 0
Nutsedge, Yellow plant response rating (yellow nutsedge; [10]): 100
Plant response rating, Ducksalad (duck salad; [14]): 75
Plant response rating, Ducksalad (duck salad; [15]): 90
Plant response rating, Velvetleaf (velvetleaf [2]; Postemergence, 125 g ai/ha): 60
Velvetleaf plant response rating (velvetleaf [2]; [11]): 70
Velvetleaf plant response rating (velvetleaf [2]; [12]): 0
Plant response rating, Velvetleaf (velvetleaf [2]; Preemergence, 500 g ai/ha): 100
Plant response rating, Wheat (wheat [3]; Postemergence, 125 g ai/ha): 50
Wheat plant response rating (wheat [3]; [11]): 60
Wheat plant response rating (wheat [3]; [12]): 60
Plant response rating, Wheat (wheat [3]; Preemergence, 500 g ai/ha): 90
Plant response rating, Rice (rice; [14]): 55
Plant response rating, Rice (rice; [15]): 65
Wheat plant response rating (wheat [4]; [5]): 10
Wheat plant response rating (wheat [4]; [6]): 60
Plant response rating (0 to 100), Wheat (wheat [4]; Postemergence, 31 g ai/ha): 0
Plant response rating (0 to 100), Wheat (wheat [4]; Postemergence, 62 g ai/ha): 0
Plant response rating, Wheat (wheat [4]; [7]): 10
Plant response rating, Wheat (wheat [4]; [8]): 50
Plant response rating, Wheat (wheat [4]; [9]): 0
Wheat plant response rating (wheat [4]; [10]): 85
Johnsongrass plant response rating (johnsongrass; [5]): 90
Johnsongrass plant response rating (johnsongrass; [6]): 100
Plant response rating (0 to 100), Johnsongrass (johnsongrass; Postemergence, 31 g ai/ha): 0
Plant response rating, Johnsongrass (johnsongrass; [13]): 0
Plant response rating, Johnsongrass (johnsongrass; [7]): 0
Plant response rating, Johnsongrass (johnsongrass; [8]): 85
Plant response rating, Johnsongrass (johnsongrass; [9]): 85
Johnsongrass plant response rating (johnsongrass; [10]): 100
Morningglory plant response rating (morningglory; [5]): 100
Morningglory plant response rating (morningglory; [6]): 100
Plant response rating (0 to 100), Morningglory (morningglory; Postemergence, 31 g ai/ha): 0
Plant response rating, Morningglory (morningglory; [13]): 0
Plant response rating, Morningglory (morningglory; [7]): 0
Plant response rating, Morningglory (morningglory; [8]): 60
Plant response rating, Morningglory (morningglory; [9]): 100
Morningglory plant response rating (morningglory; [10]): 100
Nightshade plant response rating (eastern black nightshade; [5]): 85
Nightshade plant response rating (eastern black nightshade; [6]): 90
Plant response rating, Nightshade (eastern black nightshade; Preemergence): 0
Nightshade plant response rating (eastern black nightshade; [10]): 100
Oat, Wild plant response rating (wild oat; [5]): 10
Oat, Wild plant response rating (wild oat; [6]): 90
Plant response rating (0 to 100), Oat, Wild (wild oat; Postemergence, 31 g ai/ha): 0
Plant response rating, Oat, Wild (wild oat; [13]): 0
Plant response rating, Oat, Wild (wild oat; [7]): 10
Plant response rating, Oat, Wild (wild oat; [8]): 40
Plant response rating, Oat, Wild (wild oat; [9]): 10
Oat, Wild plant response rating (wild oat; [10]): 95
Galium plant response rating (catchweed bedstraw; [5]): 85
Galium plant response rating (catchweed bedstraw; [6]): 90
Plant response rating, Galium (catchweed bedstraw; Preemergence): 80
Galium plant response rating (catchweed bedstraw; [10]): 100
Bromegrass, Downy plant response rating (downy brome; [5]): 0
Bromegrass, Downy plant response rating (downy brome; [6]): 10
Plant response rating (0 to 100), Bromegrass, Downy (downy brome; Postemergence, 31 g ai/ha): 0
Plant response rating, Bromegrass, Downy (downy brome; [13]): 0
Plant response rating, Bromegrass, Downy (downy brome; [7]): 0
Plant response rating, Bromegrass, Downy (downy brome; [8]): 10
Plant response rating, Bromegrass, Downy (downy brome; [9]): 0
Bromegrass, Downy plant response rating (downy brome; [10]): 50
Corn plant response rating (corn; [5]): 50
Corn plant response rating (corn; [6]): 98
Plant response rating (0 to 100), Corn (corn; Postemergence, 31 g ai/ha): 0
Plant response rating, Corn (corn; [13]): 0
Plant response rating, Corn (corn; [7]): 0
Plant response rating, Corn (corn; [8]): 60
Plant response rating, Corn (corn; [9]): 45
Corn plant response rating (corn; [10]): 98
Foxtail, Giant plant response rating (giant foxtail; [5]): 100
Foxtail, Giant plant response rating (giant foxtail; [6]): 100
Plant response rating (0 to 100), Foxtail, Giant (giant foxtail; Postemergence, 31 g ai/ha): 0
Plant response rating, Foxtail, Giant (giant foxtail; [13]): 0
Plant response rating, Foxtail, Giant (giant foxtail; [7]): 0
Plant response rating, Foxtail, Giant (giant foxtail; [8]): 50
Plant response rating, Foxtail, Giant (giant foxtail; [9]): 85
Foxtail, Giant plant response rating (giant foxtail; [10]): 100

Cc1cc[n+]([O-])c(S(=O)(=O)Cc2c(C(F)(F)F)nn(C)c2Cl)c1 [Compound 19]
Velvetleaf plant response rating (velvetleaf [1]; [5]): 0
Plant response rating, Velvetleaf (velvetleaf [1]; [9]): 0
Pigweed plant response rating (redroot pigweed; [16]): 10
Pigweed plant response rating (redroot pigweed; [11]): 30
Pigweed plant response rating (redroot pigweed; [12]): 100
Plant response rating, Pigweed (redroot pigweed; Preemergence, 500 g ai/ha): 100
Cupgrass, Woolly plant response rating (woolly cupgrass; [5]): 100
Plant response rating, Cupgrass, Woolly (woolly cupgrass; [9]): 0
Plant response rating (0 to 100), Cupgrass, Woolly (woolly cupgrass; Preemergence, 250 g ai/ha): 100
Nutsedge, Yellow plant response rating (yellow nutsedge; [5]): 70
Plant response rating, Nutsedge, Yellow (yellow nutsedge; [9]): 40
Plant response rating, Ducksalad (duck salad; [17]): 0
Plant response rating, Ducksalad (duck salad; [14]): 0
Plant response rating, Ducksalad (duck salad; [18]): 0
Plant response rating, Ducksalad (duck salad; [19]): 75
Velvetleaf plant response rating (velvetleaf [2]; [16]): 20
Velvetleaf plant response rating (velvetleaf [2]; [11]): 40
Velvetleaf plant response rating (velvetleaf [2]; [12]): 0
Plant response rating, Velvetleaf (velvetleaf [2]; Preemergence, 500 g ai/ha): 50
Wheat plant response rating (wheat [3]; [16]): 0
Wheat plant response rating (wheat [3]; [11]): 50
Wheat plant response rating (wheat [3]; [12]): 40
Plant response rating, Wheat (wheat [3]; Preemergence, 500 g ai/ha): 70
Plant response rating, Rice (rice; [17]): 0
Plant response rating, Rice (rice; [14]): 0
Plant response rating, Rice (rice; [18]): 30
Plant response rating, Rice (rice; [19]): 70
Wheat plant response rating (wheat [4]; [5]): 0
Plant response rating, Wheat (wheat [4]; [9]): 0
Johnsongrass plant response rating (johnsongrass; [5]): 80
Plant response rating, Johnsongrass (johnsongrass; [9]): 10
Plant response rating (0 to 100), Johnsongrass (johnsongrass; Preemergence, 250 g ai/ha): 100
Morningglory plant response rating (morningglory; [5]): 60
Plant response rating, Morningglory (morningglory; [9]): 0
Nightshade plant response rating (eastern black nightshade; [5]): 100
Plant response rating, Nightshade (eastern black nightshade; Preemergence): 85
Oat, Wild plant response rating (wild oat; [5]): 0
Plant response rating, Oat, Wild (wild oat; [9]): 0
Galium plant response rating (catchweed bedstraw; [5]): 100
Plant response rating, Galium (catchweed bedstraw; Preemergence): 85
Plant response rating (0 to 100), Galium (catchweed bedstraw; Preemergence, 250 g ai/ha): 100
Bromegrass, Downy plant response rating (downy brome; [5]): 0
Plant response rating, Bromegrass, Downy (downy brome; [9]): 0
Plant response rating (0 to 100), Bromegrass, Downy (downy brome; Preemergence, 250 g ai/ha): 0
Bromegrass, Downy plant response rating (downy brome; [20]): 0
Corn plant response rating (corn; [5]): 40
Plant response rating, Corn (corn; [9]): 0
Plant response rating (0 to 100), Corn (corn; Preemergence, 250 g ai/ha): 70
Corn plant response rating (corn; [20]): 40
Foxtail, Giant plant response rating (giant foxtail; [5]): 100
Plant response rating, Foxtail, Giant (giant foxtail; [9]): 100
Plant response rating (0 to 100), Foxtail, Giant (giant foxtail; Preemergence, 250 g ai/ha): 100
